# Assays:
# [1] = tested on: Colon26 colorectal cancer cells; assay: Anti-tumor effect on Colon26 (Experimental Example 1), transplanted mice; format: in vivo; conditions: for suppression rate: tumor weight Day 28 vs control group
# Experimental: (§1) Also, in the Examples, the “suppression rate” was calculated using the following formula.
# (§2) Suppression rate (%)=(1−tumor weight in the administration group/tumor weight in the control group)×100
# (§3) Six-week-old BALB/cAnNCrj female mice were used for this test. The following six groups were provided: Group 1 in which physiological saline (solvent) was administered; Group 2 in which sulphostin was administered at a dose of 200 mg/kg; Group 3 in which sulphostin was administered at a dose of 50 mg/kg; Group 4 in which PT-100 was administered at a dose of 200 mg/kg; Group 5 in which PT-100 was administered at a dose of 50 mg/kg; and Group 6 in which Furtulon was administered at a dose of 30 mg/kg. The number of animals was set to eight in Group 1 (control group) and to six in each of Groups 2 to 6 (drug administration groups).
# (§4) On Day 0, 2×10^5 Colon26 colorectal cancer cells were transplanted into the groin of the mice. Each of sulphostin and PT-100 was intraperitoneally administered to the mice at the above dose once in a day on Days 1 to 6, 8 to 13, 15 to 20 and 22 to 27. Furtulon was orally administered following a similar administration schedule. In use, sulphostin and PT-100 were each diluted with physiological saline to have an intended concentration; and Furtulon was suspended in 0.5% sodium carboxymethyl cellulose and then diluted with physiological saline to have an intended concentration. On Day 28, the tumor was taken out from each mouse and weighed, to thereby determine the effect of each drug. In addition, the presence or absence of side effects of each drug was confirmed by monitoring a change in body weight of the mouse in the course of the treatment and observing the degree of hair loss in the mouse after administration.
# [2] = tested on: Colon26 colorectal cancer cells; assay: Anti-tumor effect on advanced Colon26 (Experimental Example 2), drug from Day 10; format: in vivo, mouse
# Experimental: as §1, §2
# as §3, with “of 50” for “of 200”, “of 3.1” for “of 50”, “to seven” for “to eight”, “to five” for “to six”
# as §4, with “mice. Administration of each drug was initiated from Day 10 when the transplanted cancer cells were thought to grow.” for “mice.”, “Days 10” for “Days 1”, “to 18 and 20” for “to 6, 8”, “to 25.” for “to 13, 15 to 20 and 22 to 27.”, “mouse” for “mouse in the course of the treatment”, “mouse in the course of the treatment.” for “mouse after administration.”
# [3] = tested on: B16-BL6 melanoma cells; assay: Anti-tumor effect on B16-BL6 (Experimental Example 3), transplanted mice; format: in vivo, mouse; conditions: tumor weight Day 21 vs control group
# Experimental: as §1, §2
# Five-week-old C57BL/6NCrj female mice were used for this test. The following three groups were provided: Group 1 in which physiological saline (solvent) was administered; Group 2 in which sulphostin was administered at a dose of 200 mg/kg; and Group 3 in which sulphostin was administered at a dose of 50 mg/kg. The number of animals was set to seven in Group 1 (control group) and to five in each of Groups 2 and 3 (drug administration groups).
# On Day 0, 2×10^5 B16-BL6 melanoma cells were transplanted into the groin of the mice. Twenty four hours after transplantation, sulphostin was intraperitoneally administered to the mice at the above respective doses once in a day on Days 1 to 5, 7 to 12, and 14 to 19. In use, sulphostin was diluted with physiological saline to have an intended concentration. On Day 21, the tumor was taken out from each mouse and weighed, to thereby determine the effect of sulphostin.
# [4] = Toxicity test on mouse (Experimental Example 4); format: in vivo; conditions: i.p. twice a day for 10 days; for Heart weight (Avg.) / Left kidney weight (Avg.) / Liver weight (Avg.) / Lung weight (Avg.) / Right kidney weight (Avg.) / Spleen weight (Avg.) / Thymus weight (Avg.): dissected Day 19; for change in body weight: normal mice
# Experimental: Four-week-old female ICR mice (Crj: CD-1) were used for this test. The following six groups were provided: Group 1 in which physiological saline (solvent) was administered; Group 2 in which sulphostin was administered at a dose of 50 mg/kg; Group 3 in which sulphostin was administered at a dose of 25 mg/kg; Group 4 in which PT-100 was administered at a dose of 50 mg/kg; Group 5 in which PT-100 was administered at a dose of 25 mg/kg; Group 6 in which PT-100 was administered at a dose of 12.5 mg/kg; and Group 7 in which PT-100 was administered at a dose of 6.3 mg/kg. Note that each of the above doses is a dose for each administration. The number of animals was set to three in each of the groups. Each drug was intraperitoneally administered to each mouse twice in a day for 10 consecutive days, and the mouse was weighed at an appropriate time and monitored over time. On Day 19 after initiation of administration, each mouse was dissected under anesthesia and examined for remarks.
# [5] = tested on: EL-4 mouse thymoma cells; assay: Test on cell toxicity, MTT method, EL-4; format: cell-based; conditions: 48 h, EL4 thymoma, two days incubation
# Experimental: (§5) The inhibitory effect of sulphostin on the proliferation of tumor cells in vitro was investigated. The culture liquid used was a 10% FCS-containing RPMI1640 medium, and incubation was performed at 37° C. in 5% CO2-air. EL-4 mouse thymoma cells, Colon-26 mouse colon cancer cells and B16-BL6 mouse melanoma cells were incubated at 1×10^4 cells/well for two days, and then the number of cells was measured by the MTT method. Specifically, MTT (0.4% and 10 μL) was added to each cell culture, followed by incubating for four hours. Further, 20% sodium dodecyl sulphate (SDS) was added thereto in an amount of 100 μL, and each plate was measured for absorbance at 570 nm and 690 nm using a microplate reader. Sulphostin was added to the wells simultaneously with the initiation of the tumor cell incubation.
# [6] = tested on: Colon-26 mouse colon cancer cells; assay: Test on cell toxicity, MTT method, Colon-26; format: cell-based; conditions: Colon 26, 48 h, Colon26 colon cancer, two days incubation
# Experimental: as §5
# [7] = tested on: B16-BL6 mouse melanoma cells; assay: Test on cell toxicity, MTT method, B16-BL6; format: cell-based; conditions: 48 h, two days incubation
# Experimental: as §5
# [8] = 50 mg/kg intraperitoneal once a day from Day 1
# [9] = 50 mg/kg intraperitoneal, six mice per group
# [10] = 200 mg/kg intraperitoneal once a day from Day 1
# [11] = 200 mg/kg intraperitoneal, six mice per group
# [12] = 3.1 mg/kg intraperitoneal from Day 10, tumor weight Day 28 vs control group
# [13] = 50 mg/kg intraperitoneal from Day 10, tumor weight Day 28 vs control group
smiles,measurement,setting,value
"C[C@H]1O[C@@H](n2cc(F)c(=O)[nH]c2=O)[C@H](O)[C@@H]1O [Furtulon, Doxifluridine]",tumor regression,[1]; 30 mg/kg oral,the tumor was not regressed
same,suppression rate,[1]; 30 mg/kg oral once a day from Day 1,56.9%
same,suppression rate,"[2]; 30 mg/kg oral from Day 10, tumor weight Day 28 vs control group",47.0%
CC(C)[C@H](N)C(=O)N1CCC[C@H]1B(O)O [PT-100],hair loss by continuous administration,[1]; 50 mg/kg intraperitoneal,extremely observed throughout the body
same,suppression rate,[1]; [8],66.7%
same,tumor regression,[1]; [9],the tumor was not regressed
same,hair loss by continuous administration,[1]; 200 mg/kg intraperitoneal,extremely observed throughout the body
same,loss of body weight by continuous administration,[1]; 200 mg/kg intraperitoneal,considerably observed
same,suppression rate,[1]; [10],62.3%
same,tumor regression,[1]; [11],the tumor was not regressed
same,suppression rate on tumor weight,[2]; [12],51.5%
same,suppression rate on tumor weight,[2]; [13],70.8%
"N[C@H]1CCCN([P@@](N)(=O)NS(=O)(=O)O)C1=O [Sulphostin, 3(S)-amino-1-((R)-amino(sulfoamino)phosphinyl)-2-piperidone]",hair loss by continuous administration,[1]; 50 mg/kg intraperitoneal,hardly observed
same,loss of body weight by continuous administration,[1]; 50 mg/kg intraperitoneal,not observed
same,suppression rate,[1]; [8],87.8%
same,tumor regression,[1]; [9],two out of six mice
same,hair loss by continuous administration,[1]; 200 mg/kg intraperitoneal,hardly observed
same,loss of body weight by continuous administration,[1]; 200 mg/kg intraperitoneal,not observed
same,suppression rate,[1]; [10],91.7%
same,tumor regression,[1]; [11],two out of six mice
same,suppression rate on tumor weight,[2]; [12],66.2%
same,suppression rate on tumor weight,[2]; [13],87.3%
same,loss of body weight by continuous administration,"[2]; intraperitoneal from Day 10, dose not specified (groups 50 and 3.1 mg/kg)",not observed
same,suppression rate,[3]; [8],53.3%
same,suppression rate,[3]; [10],51.7%
same,abnormalities during monitoring and in remarks after dissection,[4]; 25 mg/kg per administration,nor did they show any abnormalities
same,Heart weight (Avg.),[4]; 25 mg/kg per administration,118.3 mg
same,Left kidney weight (Avg.),[4]; 25 mg/kg per administration,204.7 mg
same,Liver weight (Avg.),[4]; 25 mg/kg per administration,1769.3 mg
same,Lung weight (Avg.),[4]; 25 mg/kg per administration,182 mg
same,Right kidney weight (Avg.),[4]; 25 mg/kg per administration,210.3 mg
same,Spleen weight (Avg.),[4]; 25 mg/kg per administration,127.7 mg
same,Thymus weight (Avg.),[4]; 25 mg/kg per administration,63.7 mg
same,change in body weight,[4]; 25 mg/kg per administration,did not decrease in body weight
same,abnormalities during monitoring and in remarks after dissection,[4]; 50 mg/kg per administration,nor did they show any abnormalities
same,Heart weight (Avg.),[4]; 50 mg/kg per administration,120 mg
same,Left kidney weight (Avg.),[4]; 50 mg/kg per administration,202.3 mg
same,Liver weight (Avg.),[4]; 50 mg/kg per administration,1803.7 mg
same,Lung weight (Avg.),[4]; 50 mg/kg per administration,165.3 mg
same,Right kidney weight (Avg.),[4]; 50 mg/kg per administration,206.7 mg
same,Spleen weight (Avg.),[4]; 50 mg/kg per administration,141.7 mg
same,Thymus weight (Avg.),[4]; 50 mg/kg per administration,76 mg
same,change in body weight,[4]; 50 mg/kg per administration,did not decrease in body weight
same,IC50,[5],> 100 µg/mL
same,IC50,[6],> 100 µg/mL
same,IC50,[7],> 100 µg/mL
